Values quoted from earlier work, collected in US11259516B2, “Method and apparatus for capsular delivery to plants” (priority 2017, dated 2022).

Legend:
Set-up in all cases: key: X indicates that the given herbicide is suitable for controlling the given weed
Details in all cases: cited from earlier work
[1] = tested on: Vachellia nilotica (Prickly acacia)
Lantana camara (Lantana) = tested on: Lantana camara (Lantana)
[2] = tested on: Atalaya hemiglauca (Whitewood)
[3] = tested on: Lycium ferocissium (African boxthom)
[4] = tested on: Vachellia famesiana (Mimosa bush)
Acacia spp (Wattles) = tested on: Acacia spp (Wattles)
[5] = tested on: Cryptostegia grandiflora (Rubber vine)
[6] = tested on: Eremophila mitchellii (False sandalwood)
[7] = tested on: Planchonia careya (Cocky apple)
[8] = tested on: Parkinsonia aculeata (Parkinsonia)
Melalauca spp = tested on: Melalauca spp
Mimosa pigra (Mimosa) = tested on: Mimosa pigra (Mimosa)
[9] = tested on: Calotropis procera (Rubber bush)

Measured: suitability of herbicide for control of weed

CNC(=O)N(C)c1nnc(C(C)(C)C)s1 [Tebuthiuron]
X: all assays above
